Structures can show the parent of a compound that is named as a salt. Where two headings read alike, the source gives them in different places.
Key:
[1] = test system: isolated guinea pig ileum; experiment: twitch contractions (electrically induced) of the isolated guinea pig ileum; details: for IC50: Cavia porcellus; for threshold of reduction of electrically induced contractions: concentration-dependent; for % reversal by naloxone: naloxone 10^−6 M added after last application of test compound; for inhibitory effect reversed after addition of naloxone: opioid receptor antagonist naloxone 1 μM; for maximal reduction: twitch reaction remaining as % of pre-value at highest concentration
Description: It was investigated whether axomadol and (+)-O-demethyl axomadol are able to modulate gastrointestinal motility.
Male guinea pigs (PBW, Charles River, Kiβlegg, FRG) weighing 250-350 g were used for the study. The animals were kept under standard housing conditions: light/dark rhythm (06.00-18.00 h light, 18.00-6.00 h dark); room temperature 22±2° C., relative air humidity 55±5%; 15 air changes per hour, air movement <0.2 m/sec. The animals were given water and an exclusive diet of “Herilan RM 204” (Eggersmann Company, Rinteln/FRG) ad libitum. Before experimental preparation they were kept in groups of up to 5 animals in type IV Makrolon cages (Ebeco Company, Castrop-Rauxel, FRG). There were at least 4 days between delivery and testing.
Axomadol hydrochloride and (+)-O-demethyl axomadol hydrochloride were dissolved in aqua bidest. Final concentrations in the organ bath ranged from 10^−7 to 3.2·10^−4 M and from 10^−8 to 3.2·10^−5 M for axomadol hydrochloride and (+)-O-demethyl axomadol hydrochloride respectively (cumulative drug application). Naloxone (10^−6 M) was used as opioid antagonist.
A four-compartment organ bath (Dept. Biotechnology, Grunenthal GmbH) consisting of 20 ml acrylic glass compartments, organ supports and force transducers (F10 force transducers, Type 375, HSE, FRG) was used for the measurement of isometric contractions. The organ bath was filled and emptied by means of a semi-automatic dosing arrangement. All experiments were performed at […]. The nutrient solution was gassed with carbogen (95% O2/5% CO2)) both in the nutrient storage chamber and in the organ bath starting 30 min before the beginning and throughout the experiment.
The nutrient solution had the following composition:
Parameter: contraction force [g]
Guinea pigs were killed in CO2-atmosphere and the ileum was dissected free from adhering tissue, removed and suspended in the organ bath. After an incubation period of at least 30 min, isometric contractions (twitch reactions) were elicited by transmural stimulation pulses (duration 1 ms, amplitude 180 mA at 0.03 Hz; stimulator A310, WPI, FRG). A pre-tension of 1 g was applied to the preparations and constantly readjusted during the equilibration period (at least 30 minutes) while the nutrient was changed twice.
After having registered the pre-value, test compounds were added to the organ bath in cumulative concentration steps as indicated. The exposure time for each concentration was 6 minutes. After the last application of the test compound, the opioid-antagonist naloxone (10^−6 M) was added without previous wash out of the test compound.
1.5 Evaluation Data was calculated as the mean electrically stimulated contraction force during a period of 4 to 6 minutes after compound application and expressed as percentage of the pre-value. The mean contraction force during a period of 2 minutes before compound application was taken as pre-value. All results were expressed as means±s.e.m. of ≧4 single experiments. For determination of IC50 values, regression lines (y=f log x) were constructed and IC50 values with s.e.m. were calculated using a computer-assisted regression analysis program (Grünenthal GmbH). The reversal of the test compound's activity by the antagonist was determined according to the following equation:
with max. effect being: 100%−% reduction of pre-value of twitch reaction at highest dose of test compound.

[2] = test system: visceral hyperalgesia induced by rectal administration of mustard oil in mice; experiment: visceral hyperalgesia / mustard oil colitis in mice; assay type: in vivo
From the text: The effects of axomadol hydrochloride on visceral hyperalgesia were studied, which was induced by rectal administration of mustard oil in mice (according to Laird J M, Martinez-Caro L, Garcia-Nicas E, Cervero F. (2001) A new model of visceral pain and referred hyperalgesia in the mouse. Pain 92: 335-42). The typical visceral pain behaviour was quantified in three parameters: During the first minutes after mustard oil administration spontaneous visceral pain behaviour occurs. Following this period of spontaneous pain, referred allodynia and hyperalgesia can be quantified by means of von Frey filaments of different strength stimulating the abdomen of the mice.
Male NMRI mice (28-38 g body weight) from a commercial breeder (Iffa Credo, France) were used. The animals were housed under standardized conditions: light/dark cycle (06.00-18.00 h light, 18.00-06.00 h dark), room temperature 20-24° C., relative air humidity 35-70%, 15 air changes per hour, air movement <0.2 m/sec, tap water and standard diet ad libitum, macrolon type 4 cages with maximally 30 animals per cage. There were at least 5 days between delivery and start of the experiment.
Axomadol hydrochloride was dissolved in vehicle solution and injected intra-venously.
Doses: 0.464; 1.0; 2.15; 4.64; 10.0 mg/kg i.v. Administration volume: 10 ml/kg Vehicle solution: 0.9% NaCl solution (Fresenius, Bad Homburg, FRG) Mustard oil was dissolved in vehicle solution and administered intra-rectally Dose: 50 μl of a 3.5 Vol.−% solution per animal Vehicle solution: PEG 200
2.3.1 Induction of Colitis Animals were habituated to the test conditions for 20-30 min and stimulated with von Frey filaments onto the abdominal wall. 10 stimulations with von Frey filaments of 1, 4, 8, 16, and 32 mN were applied in ascending order (i.e. 10×1 mN, 10×4 mN, etc.). Animals with more than 25 positive reactions during this phase were excluded. Vaseline was applied in the perianal area to avoid the stimulation of somatic areas with the irritant chemical. Colitis is induced by rectal administration of 50 μl mustard oil (3.5%). Control animals are treated with vehicle (50 μl PEG200).
Axomadol hydrochloride or vehicle was given intravenously (i.v.) 5 min before mustard oil. Seven animals were tested per group. The following parameters were counted:
2-12 min after mustard oil: • 1. Spontaneous pain score: counting and scoring of visceral pain behaviours (Score 1-2, 1=licking of abdominal wall, 2=stretching, squashing, mounting, backward-movement or contraction of the flank muscles). 20-40 min after mustard oil • 2. […]
Data were analysed by means of two-factor analysis of variance (ANOVA) with repeated measures. Significance of treatment-, time- or treatment x time interaction effects was analyzed by means of Wilks' Lambda statistics. […]

[3] = isolated guinea pig ileum, mean ± s.e.m., read-out: IC50 value, reduction of electrically induced contractions
[4] = twitch contractions of the guinea pig ileum, cumulative application, read-out: IC50

SMILES	IC50 [1, 3]	IC50 [1, 4]	twitch reactions, reduction to % of pre-value ([1]; increasing concentrations up to 320 μM)	threshold of reduction of electrically induced contractions ([1]; isolated guinea pig ileum)	% reversal by naloxone [1]	inhibitory effect reversed after addition of naloxone [1]	maximal reduction [1]	inhibition of all three visceral pain parameters ([2]; 0.464, 1.0, 2.15, 4.64 and 10.0 mg/kg i.v.)	ED50 (95% confidence intervals), referred allodynia ([2]; i.v. 5 min before mustard oil, 1 mN von Frey filament, 20-40 min after mustard oil)	ED50 (95% confidence intervals), spontaneous visceral pain behaviour ([2]; i.v. 5 min before mustard oil, 2-12 min after mustard oil)	ED50 (95% confidence intervals), referred hyperalgesia ([2]; i.v. 5 min before mustard oil, 16 mN von Frey filament, 20-40 min after mustard oil)	twitch reactions, reduction to % of pre-value ([1]; increasing concentrations up to 32 μM)
COc1cccc([C@@]2(O)C[C@H](O)CC[C@@H]2CN(C)C)c1 (racemic) [axomadol hydrochloride, (1RS,3RS,6RS)-6-dimethylaminomethyl-1-(3-methoxyphenyl)-cyclohexane-1,3-diol]	39.2 ± 2.8 µM	39.2 ± 2.8 µM	32.1 % of pre-value	around 10 μM	83.4%	83.4%	32.1 % pre-value	dose dependent and significant inhibition	6.13 (5.56-6.60-4.75) mg/kg i.v.	2.62 (1.79-4.05) mg/kg i.v.	2.72 (1.58-5.46) mg/kg i.v.	
CN(C)CC1CCC(O)CC1(O)c1cccc(O)c1 (single isomer, unassigned; (+)) [(+)-O-demethyl axomadol hydrochloride, 6-dimethylaminomethyl-1-(3-hydroxyphenyl)-cyclohexane-1,3-diol]	0.43 ± 0.09 µM	0.43 ± 0.09 µM		around 0.032 μM	69.1%	69.1%	16.6 % pre-value					16.6±3 % of pre-value
